Data set [1] can be described thus: Compound cytotoxicity, XTT-based colorimetric assay. In kind it is cell-based. The conditions noted are these: human; uninfected MT2 cells, day 4, XTT. As for the experimental part: Compound cytotoxicity and the corresponding CC50 values were determined using the same protocol as described in the antiviral assay except that uninfected cells were used. Cytotoxicity was assessed on day 4 in uninfected MT2 cells by using a XTT (2,3-bis[2-Methoxy-4-nitro-5-sulfophenyl]-2H-tetrazolium-5-carboxyanilide inner salt)-based colorimetric assay (Sigma-Aldrich, St Louis, Mo).
Background: Formazan colour is commonly taken as a measure of viable cells.

For data set [2], the system named is recombinant NL4-3 virus (nef section replaced with Renilla luciferase gene) in MT-2 cells. As to the kind of experiment: HIV cell culture assay (antiviral activity, luciferase readout in infected MT-2 cells). Type of data set: cell-based. The conditions noted are these: NL43. As for the experimental part:
HIV cell culture assay—MT-2 cells, 293T cells and the proviral DNA clone of NL4-3 virus were obtained from the NIH AIDS Research and Reference Reagent Program. MT-2 cells were propagated in RPMI 1640 media supplemented with 10% heat inactivated fetal bovine serum (FBS), […]. The 293T cells were propagated in DMEM media supplemented with 10% heat inactivated FBS, […]. A recombinant NL4-3 proviral clone, in which a section of the nef gene was replaced with the Renilla luciferase gene, was used to make the reference virus used in these studies. The recombinant virus was prepared through transfection of the recombinant NL4-3 proviral clone into 293T cells using Transit-293 Transfection Reagent from Minis Bio LLC (Madison, Wis.). Supernatent was harvested after 2-3 days and the amount of virus present was titered in MT-2 cells using luciferase enzyme activity as a marker by measuring luciferase enzyme activity. Luciferase was quantitated using the EnduRen Live Cell Substrate from Promega (Madison, Wis.). Antiviral activities of compounds toward the recombinant virus were quantified by measuring luciferase activity in MT-2 cells infected for 4-5 days with the recombinant virus in the presence of serial dilutions of the compound.
The 50% effective concentration (EC5o) was calculated by using the exponential form of the median effect equation where (Fa)=1/[1+(ED50/drug conc.)m] (Johnson Va., Byington R T. Infectivity Assay. In Techniques in HIV Research. ed. Aldovini A, Walker B D. 71-76. New York: Stockton Press.1990). The 50% inhibitory concentration (EC50) was calculated by using the exponential form of the median effect equation where percent inhibition=1/[1 +(EC50/drug concentration)m], where m is a parameter that reflects the slope of the concentration-response curve.

Drawing on patent US20210393633A1, “INHIBITORS OF HUMAN IMMUNODEFICIENCY VIRUS REPLICATION” (ViiV HEALTHCARE UK (NO.5) LIMITED, priority 2018, published 2021), this text covers CC50 and EC50 for two compounds.

SMILES strings stand for the structures.

Usually CC50 stands for the concentration that lowers cell viability or growth by half. High values mean better tolerance by the cells, low ones harm at low concentration. One may read the EC50 as the midpoint of the concentration-response curve. In the case of `C[C@@H]1CC(c2ccc3c(=O)n(-c4ccc(Cl)c5c(NS(C)(=O)=O)nn(CC(F)F)c45)c([C@H](Cc4cc(F)cc(F)c4)NC(=O)Cn4nc(C(F)F)c5c4C(F)(F)[C@@H]4C[C@H]54)nc3c2)=C[C@H](C)O1` (atropisomer, axis not shown; (P)) [Example 20, N—((S)-1-((3P)-3-(4-chloro-1-(2,2-difluoroethyl)-3-(methylsulfonamido)-1H-indazol-7-yl)-7-((2R,6S)-2,6-dimethyl-3,6-dihydro-2H-pyran-4-yl)-4-oxo-3,4-dihydroquinazolin-2-yl)-2-(3,5-difluorophenyl)ethyl)-2-((3bS,4aR)-3-(difluoromethyl)-5,5-difluoro-3b,4,4a,5-tetrahydro-1H-cyclopropa[3,4]cyclopenta[1,2-c]pyrazol-1-yl)acetamide], the CC50 at 4 day in data set [1] is greater than 500 nM. Besides, the EC50 in data set [2] was determined as 0.13 nM.

The compound `CS(=O)(=O)Nc1nn(CC(F)F)c2c(-n3c([C@H](Cc4cc(F)cc(F)c4)NC(=O)Cn4nc(C(F)F)c5c4C(F)(F)[C@@H]4C[C@H]54)nc4cc(C5=CCOCC5)ccc4c3=O)ccc(Cl)c12` (atropisomer, axis not shown; (P)) [Example 15, N—((S)-1-((3P)-3-(4-chloro-1-(2,2-difluoroethyl)-3-(methylsulfonamido)-1H-indazol-7-yl)-7-(3,6-dihydro-2H-pyran-4-yl)-4-oxo-3,4-dihydroquinazolin-2-yl)-2-(3,5-difluorophenyl)ethyl)-2-((3bS,4aR)-3-(difluoromethyl)-5,5-difluoro-3b,4,4a,5-tetrahydro-1H-cyclopropal3,41cyclopenta[1,2-c]pyrazol-1-yl)acetamide] came in with a CC50 at 4 day in data set [1] greater than 500 nM. For the same compound, the concentration for a half-maximal effect (EC50) in data set [2] came out at 0.094 nM.
